Experimental data reported in ChEMBL document CHEMBL4706659, “Design, synthesis and biological evaluation of novel 2,4-diaryl pyrimidine derivatives as selective EGFR inhibitors” (Eur J Med Chem, 2021).

Columns and labels:
Format in all cases: functional
NCI-H1975 [1] = assay: Induction of apoptosis in human NCI-H1975 cells harboring EGFR T790M/L858R mutant assessed as late apoptotic cells at 10 nM measured after 48 hrs by Annexin-V-FITC/propidium iodide staining based flow cytometry (reference value: 0.04%)
NCI-H1975 [2] = assay: Induction of apoptosis in human NCI-H1975 cells harboring EGFR T790M/L858R mutant assessed as early apoptotic cells at 10 nM measured after 72 hrs by Annexin-V-FITC/propidium iodide staining based flow cytometry (reference value: 0.72%)
NCI-H1975 [3] = assay: Induction of apoptosis in human NCI-H1975 cells harboring EGFR T790M/L858R mutant assessed as necrotic cells at 5 nM measured after 72 hrs by Annexin-V-FITC/propidium iodide staining based flow cytometry (reference value: 0.49%)
NCI-H1975 [4] = assay: Induction of apoptosis in human NCI-H1975 cells harboring EGFR T790M/L858R mutant assessed as necrotic cells at 10 nM measured after 48 hrs by Annexin-V-FITC/propidium iodide staining based flow cytometry (reference value: […])

How did the Activity (NCI-H1975 [1]) turn out when `C=CC(=O)Nc1cc(Nc2nccc(-c3cn(C4CC4)c4ccccc34)n2)c(OC)cc1[S+]([O-])CCN(C)C` (centres undefined) was run?
The Activity was 21.25%.

And the Activity (NCI-H1975 [2])?
Its Activity is 44.72%.

What about the Activity (NCI-H1975 [3]) of the same molecule?
The Activity was 10.51%.

And the Activity (NCI-H1975 [4])?
Its Activity is 21.2%.
